Data taken from patent US12583841B2, “Tetrahydropyrrolocyclic compound and application thereof” (Breakthrough Pharmaceuticals Inc., priority 2021, dated 2026).
Where two headings read alike, the source gives them in different places.

How the values were obtained:
SD rats = experiment: Effect on spontaneous activities of SD rats; assay type: in vivo; conditions: SD rat, 30 mg/kg, recorded 60 min from 30 minutes after administration, Mean±SEM; blank vehicle 31.91 ± 3.92
Method: Test purpose: to judge the effect of the test compound on the activity of rats by measuring the spontaneous activity distance of rats in a period of time.
Test scheme: 12 male SD rats aged 7 weeks were adapted in the laboratory 1 day before the start of the test. On the day of the experiment, the rats were randomly divided into 2 groups according to their body weight, with 6 rats in each group, and the rats were given blank vehicle and compound 8 (30 mg/kg), respectively. The animals were put into a test box 30 minutes after administration, and the distance data of animal activity were recorded every 5 min with Any-maze software, and the recording was continued for 60 min. By comparing the total distance of animal activity within the recording time, it is judged whether the drug has a significant effect on the spontaneous activity of the animal. The experimental data were represented by the mean±[…] (Mean±SEM). The statistical method adopted one-way analysis of variance plus Dunnett's multiple comparisons. P<0.05 was represented as *, p<0.01 was represented as **, and p<0.001 was represented as ***.

OX1R = biological target: T1, OX1R (Homo sapiens, UniProt O43613); experiment: FLIPR intracellular calcium antagonism test, HEK293-OX1R cells; assay type: cell-based; conditions: Orexin A at EC70, read-out: hOXIR IC50
T1 construct: expressed in transfected cells
T1 sequence (O43613 1-425): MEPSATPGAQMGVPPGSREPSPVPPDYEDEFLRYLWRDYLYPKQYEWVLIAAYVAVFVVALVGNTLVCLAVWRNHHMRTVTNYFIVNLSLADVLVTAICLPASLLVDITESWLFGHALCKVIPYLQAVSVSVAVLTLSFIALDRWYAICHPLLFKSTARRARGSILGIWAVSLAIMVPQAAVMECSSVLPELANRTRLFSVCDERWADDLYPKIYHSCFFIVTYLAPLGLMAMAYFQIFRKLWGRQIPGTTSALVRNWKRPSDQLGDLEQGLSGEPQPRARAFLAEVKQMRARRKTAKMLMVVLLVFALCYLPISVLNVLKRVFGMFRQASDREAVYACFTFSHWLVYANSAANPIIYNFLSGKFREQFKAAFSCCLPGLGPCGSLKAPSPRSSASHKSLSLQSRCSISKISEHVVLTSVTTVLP
Method: The change of intracellular calcium signal was detected by FLIPR, and the antagonism of the compounds on OX1R and OX2R receptors was evaluated by using IC50 value of the compounds as an index.
• Cell lines: Transfected HEK293-OX1R and HEK293-OX2R stable cell lines • HEK293-OX1R cell culture medium (DMEM, Invitrogen #11960-044, 10% serum Gibco #10099141, L-Glutamine 1×, Gibco #25030, sodium pyruvate 1×, Gibco #11360, Geneticin 300 μg/mL, Gibco #10131) • HEK293-OX2R cell culture medium (DMEM, Invitrogen #11960-044, 10% serum Gibco #10099141, L-Glutamine 1×, Gibco #25030, sodium pyruvate 1×, Gibco #11360, Geneticin 300 μg/mL, Gibco #10131, Blasticin 2 μg/mL, Invitrogen #R21001)
Experimental Steps and Methods: • a) Cell seeding (HEK293-OX1R and HEK293-OX2R cells) • 1) preheating the culture medium, trypsin and DPBS under water bath at 37° C.; pipetting and removing the medium of cell culture and washing same with 10 mL of DPBS; • 2) adding the preheated trypsin to a culture flask, rotating the culture flask so that the trypsin evenly covered the culture flask, and putting the culture flask in a 37° C., 5% CO2 incubator for digestion for 1-2 min; • 3) suspending the cells with 10-15 mL of medium for each T150 and centrifuging at 800 rpm for 5 min; resuspending the cells with 10 mL of medium, pipetting 1 mL of the cell suspension and counting with Vi-cell; • 4) diluting OX1R cells with medium to 5×10^5 cells/mL, and diluting OX2R cells with medium to 4×10^5 cells/mL, and adding the diluted cells to 384 plate (Greiner.781946) with a multi-channel pipette (50 μL/well, 25000 cells/well for OX1R cells, 20000 cells/well for OX2R cells); placing the cell plate in a 37° C., 5% CO2 incubator overnight. • b) Compound loading: • 1) diluting the compound to 20 mM with DMSO, 3-fold dilution, 8 gradients, duplicate wells, and adding same to a compound plate with an Echo liquid handler; then adding 20 μL of buffer to maintain the final concentration of DMSO of 0.1%. • c) FLIPR experiment: • 1) washing off the cell culture medium in the 384 plate with a vacuum pump, adding […] Direct fluorescent dye, incubating in 37° C., 5% CO2 incubator for 1 h, and balancing at room temperature for another 10 min. • 2) EC50 test: manually diluting Orexin A on ice, 3-fold dilution, 8 gradients, duplicate wells; preparing a DMSO plate and keep the DMSO concentration to be 0.5%; putting the cell plate, OrexinA plate, and DMSO plate in FLIPR respectively, and reading the fluorescence value. • 3) calculating the EC70 value based on the EC50 value of Orexin A; preparing a 5×EC70 solution, adding same to 384 compound plate with a multi-channel pipette, and storing on ice; • 4) putting the compound plate, 5×EC70 plate, cell plate, and FLIPR tip in sequence in FLIPR, running the program, and reading the fluorescence value. • d) Data analyzing: using Prism5.0 to analyze the data, and calculating the IC50 value of the compound.

[1] = Drug concentration in brain tissue and plasma of SD rats; assay type: in vivo; conditions: male, Sprague-Dawley (SD), po, SD rat, p.o. 30 mg/kg
Method: (§1) 4 healthy SD rats aged 6-9 weeks were selected, and the other group was given the test compound at 10 mg/kg by intragastric administration. 2 animals were randomly selected at 0.5 h and 2 h after administration, respectively. Plasma and brain tissue samples were collected, and LC-MS/MS method was used for quantitative analysis of all biological samples.
as §1, with “healthy male” for “healthy”, “selected” for “selected,”, “and” for “and the other group was”, “compound” for “compound at 10 mg/kg”, “selected to be euthanized” for “selected”

IC50 (OX1R): 1790 nM
Kp at 0.5 h ([1]; brain / plasma, 0.5 h, read-out: Brain-to-blood ratio): 0.25
Kp at 2 h ([1]; brain / plasma, 2 h, read-out: Brain-to-blood ratio): 0.19
concentration at 0.5 h ([1]; brain, 0.5 h, read-out: Drug concentration in brain): 1390 nM
concentration at 2 h ([1]; brain, 2 h, read-out: Drug concentration in brain): 212 nM
concentration at 0.5 h ([1]; plasma, 0.5 h, read-out: Drug concentration in plasma): 5600 nM
concentration at 2 h ([1]; plasma, 2 h, read-out: Drug concentration in plasma): 1100 nM
Structure (SMILES): COc1ccc(-n2nccn2)c(C(=O)N2C(c3nc4ccc(OC)cc4[nH]3)CC3CC32)c1 (centres unmarked) [Compound 8]
Spontaneous activity distance (SD rats): 14.73 ± 1.38 meters
